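Five concentrations, 48 hours, 96-well plates. GI50 is the concentration that inhibits growth by half.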 Activity calls are given as the source filed them. Rule as the data show it: active = GI50 up to about 1.1 µM and inactive = higher.
Assays:
Assay in all cases: NCI tumour cell line growth inhibition, 48 h
A498 = tested on: A498
HCC 2998 = tested on: HCC 2998
HCT-116 = tested on: HCT-116
HL-60 = tested on: HL-60
HOP-62 = tested on: HOP-62
HT-29 = tested on: HT-29
Malme-3M = tested on: Malme-3M
NCI-H23 = tested on: NCI-H23
NCI-H460 = tested on: NCI-H460
NCI-H522 = tested on: NCI-H522
SF-295 = tested on: SF-295
SF-539 = tested on: SF-539
SK-MEL-2 = tested on: SK-MEL-2
SK-MEL-5 = tested on: SK-MEL-5
SNB-19 = tested on: SNB-19
SNB-75 = tested on: SNB-75
TK-10 = tested on: TK-10
U-251 = tested on: U-251
UO-31 = tested on: UO-31

Measured: GI50

C#CC(C)(C)Oc1cc(O)c2c(=O)c3ccccc3n(C)c2c1
inactive: A498 > 100 µM | HCC 2998 77.4 µM | HCT-116 > 100 µM | HL-60 > 100 µM | HOP-62 94 µM | HT-29 34 µM | Malme-3M > 100 µM | NCI-H23 > 100 µM | NCI-H460 24.5 µM | NCI-H522 > 100 µM | SF-295 > 100 µM | SF-539 15.5 µM | SK-MEL-2 > 100 µM | SK-MEL-5 > 100 µM | SNB-19 > 100 µM | SNB-75 40.4 µM | TK-10 > 100 µM | U-251 42.1 µM | UO-31 > 100 µM

Cc1ccccc1-n1c(CCl)nc2ccc(Br)cc2c1=O
inactive: A498 30.1 µM | HCC 2998 16.8 µM | HCT-116 9.53 µM | HL-60 5.77 µM | HOP-62 23.4 µM | HT-29 4.29 µM | Malme-3M 17.3 µM | NCI-H23 9.91 µM | NCI-H460 13.5 µM | NCI-H522 2.28 µM | SF-295 11 µM | SF-539 7.16 µM | SK-MEL-2 14.6 µM | SK-MEL-5 8.17 µM | SNB-19 26.7 µM | SNB-75 12.8 µM | TK-10 24.7 µM | U-251 13.2 µM | UO-31 14.9 µM

N#Cc1nc(Nc2ccc([N+](=O)[O-])cc2)sc1N
inactive: A498 26.2 µM | HCC 2998 11.7 µM | HCT-116 11.3 µM | HL-60 3.53 µM | HOP-62 20.4 µM | HT-29 33.5 µM | Malme-3M 23.9 µM | NCI-H23 4.44 µM | NCI-H460 28.8 µM | NCI-H522 4.05 µM | SF-295 26.5 µM | SF-539 4.02 µM | SK-MEL-2 21.6 µM | SK-MEL-5 3.79 µM | SNB-19 17.7 µM | SNB-75 39.4 µM | TK-10 22.9 µM | U-251 9.68 µM | UO-31 7.38 µM

O=C(NCCCCCCCCCCCCNC(=O)c1cccc2ccccc12)c1cccc2ccccc12
inactive: A498 > 47.9 µM | HCC 2998 > 100 µM | HCT-116 > 57.9 µM | HL-60 31.3 µM | HOP-62 2.98 µM | HT-29 > 100 µM | Malme-3M > 92.3 µM | NCI-H23 > 64.1 µM | NCI-H460 > 90.8 µM | NCI-H522 > 100 µM | SF-295 > 50.4 µM | SF-539 1.66 µM | SK-MEL-2 > 58.1 µM | SK-MEL-5 > 100 µM | SNB-19 45.6 µM | SNB-75 26.1 µM | TK-10 > 52.7 µM | U-251 > 36.7 µM | UO-31 > 42.7 µM

N#Cc1cccc2c1Nc1ccccc1S2
inactive: A498 > 100 µM | HCC 2998 > 100 µM | HCT-116 > 100 µM | HL-60 > 100 µM | HOP-62 43.4 µM | HT-29 > 100 µM | Malme-3M > 100 µM | NCI-H23 > 100 µM | NCI-H460 > 100 µM | NCI-H522 > 100 µM | SF-295 35.2 µM | SF-539 46.7 µM | SK-MEL-2 87.1 µM | SK-MEL-5 > 100 µM | SNB-19 37.8 µM | SNB-75 19.7 µM | TK-10 > 100 µM | U-251 92.7 µM | UO-31 > 100 µM

CCOC(=O)C1C(c2ccc(Cl)cc2Cl)NC(c2ccc(C)cc2)C(C(=O)OC)S1(=O)=O (stereo unspecified)
inactive: A498 > 100 µM | HCC 2998 > 100 µM | HL-60 55.8 µM | HOP-62 > 100 µM | HT-29 > 100 µM | Malme-3M > 100 µM | NCI-H23 66.8 µM | NCI-H460 37.7 µM | NCI-H522 > 100 µM | SF-295 > 100 µM | SF-539 > 100 µM | SK-MEL-2 95.1 µM | SK-MEL-5 87.5 µM | SNB-19 > 100 µM | SNB-75 20.1 µM | TK-10 > 100 µM | U-251 > 100 µM | UO-31 37.9 µM

C=C1C(=O)OC2C/C(C)=C/CC/C(C)=C/CCC3(COC(C)=O)OC3CC12 (stereo unspecified)
inactive: A498 13.8 µM | HCC 2998 8.85 µM | HCT-116 1.84 µM | HL-60 2.21 µM | HOP-62 18.7 µM | HT-29 8.32 µM | Malme-3M 12.9 µM | NCI-H23 11.8 µM | NCI-H460 12.7 µM | NCI-H522 1.51 µM | SF-295 15.3 µM | SF-539 2.85 µM | SK-MEL-2 3.33 µM | SK-MEL-5 14.9 µM | SNB-19 16.5 µM | SNB-75 11.6 µM | TK-10 7.14 µM | U-251 11.2 µM | UO-31 12.7 µM

Cc1cccc(C)c1NC(=O)C(=O)Nn1c(NN)nc2ccccc2c1=O
inactive: A498 > 100 µM | HCC 2998 > 100 µM | HCT-116 > 100 µM | HL-60 > 100 µM | HOP-62 > 100 µM | HT-29 > 100 µM | Malme-3M > 100 µM | NCI-H23 > 100 µM | NCI-H460 > 100 µM | NCI-H522 > 100 µM | SF-295 > 100 µM | SF-539 > 100 µM | SK-MEL-2 > 100 µM | SK-MEL-5 > 100 µM | SNB-19 > 100 µM | SNB-75 > 100 µM | TK-10 > 100 µM | U-251 > 100 µM | UO-31 > 100 µM

COc1ccc2nc3cc(Cl)ccc3c(NCCC[N+](C)(C)CCCCCCCCCCCCCCCC[N+](C)(C)CCCNc3c4ccc(Cl)cc4nc4ccc(OC)cc34)c2c1
inactive: A498 6.17 µM | HCC 2998 2.84 µM | HCT-116 1.75 µM | HL-60 1.69 µM | HOP-62 2.88 µM | HT-29 1.61 µM | Malme-3M 2.24 µM | NCI-H23 2 µM | NCI-H460 1.68 µM | NCI-H522 2.81 µM | SF-295 6.03 µM | SF-539 2.25 µM | SK-MEL-2 1.79 µM | SK-MEL-5 2 µM | SNB-19 2.69 µM | SNB-75 2.83 µM | TK-10 4.22 µM | U-251 2 µM | UO-31 > 10 µM

CC(C)N(C(=O)C12C3C4C1C1C2C3C41C(=O)C(C)(C)C)C(C)C (stereo unspecified)
inactive: A498 > 100 µM | HCC 2998 > 100 µM | HCT-116 92.9 µM | HL-60 18.1 µM | HOP-62 > 100 µM | HT-29 76.7 µM | Malme-3M > 100 µM | NCI-H23 > 100 µM | NCI-H522 14 µM | SF-295 > 100 µM | SF-539 > 100 µM | SK-MEL-2 > 100 µM | SK-MEL-5 38.8 µM | SNB-19 > 100 µM | SNB-75 > 100 µM | TK-10 > 100 µM | U-251 > 100 µM | UO-31 46.1 µM

COc1c(I)c(OC)c2c(c1I)O[C@@H]1OCC[C@H]21
inactive: A498 28.4 µM | HCC 2998 30.5 µM | HCT-116 35.6 µM | HL-60 17.3 µM | HOP-62 17.4 µM | HT-29 39.4 µM | Malme-3M 34 µM | NCI-H23 30.6 µM | NCI-H460 20.2 µM | SF-295 38.2 µM | SF-539 > 100 µM | SK-MEL-2 19.9 µM | SK-MEL-5 13.7 µM | SNB-19 77.1 µM | SNB-75 27.2 µM | TK-10 40.6 µM | U-251 37.6 µM | UO-31 22.4 µM

Source: ChEMBL document CHEMBL1201862, “PubChem BioAssay data set” (2004)
